The values that follow come from patent US7629310B2, “RhoB as a suppressor of cancer cell growth, cell transformation, and metastasis” (University of South Florida, priority 2000, dated 2009).

What all share (assay type): cell-based
The test system of one test is H-Ras/3T3 cells. Put plainly: Invasion through […]-coated transfilters, H-Ras/3T3 cells. As to conditions: H-Ras/3T3 cells (FIG. 9A). As for the experimental part: HRas/3T3 cells (FIG. 9A) and PANC-1 cells (FIG. 9B) were transiently transfected with pcDNA3 vector control, H-Ras61L, CA-Akt, or WT-Akt in the presence or absence of RhoA, RhoB, or pcDNA3 for 36 hours. The cells were then split and analyzed for their invading capabilities through […]-coated transfilters as described in the Materials and Methods section. PANC-1 and PC3 cells (FIG. 9C) were transiently transfected with pcDNA3, with H-Ras61L in the presence or absence of RhoA, or RhoB for 36 hours. The cells were then serum-starved for another 36 hours; the conditioned medium was collected and 20 μg protein were analyzed for MMP-2 expression by Western Blotting.
Whether RhoB can also antagonize cell invasion was evaluated. To this end, H-Ras/3T3 and PANC-1 cells were similarly transfected as above with various oncogenes along with RhoA or RhoB, then seeded onto […]-coated poly-hydrocarbonate filters mounted in the middle of a Boyden transwell apparatus as described under Methods. […] Furthermore, transfection with CA-Akt or WT-Akt enhanced invasion; and RhoB, not RhoA, inhibited this enhancement of invasion (FIGS. 9A and 9B).

Test [1] deals with RhoB promoter. As to the kind of experiment: RhoB promoter transcriptional activity (luciferase reporter) in NIH3T3 cells. The text has this:
Gene Constructs and RhoB Promoter Transcriptional Activity Assay. Constitutively active H-Ras61L, K-RasV12, N-RasV12, and dominant negative […]-Ras were kind gifts from Dr. Channing Der (University of North Carolina) (Khosravi-Far, R. et al., Mol Cell Biol, 1995, 15:6443-53; Quilliam, L. A. et al., Mol Cell Biol, 1994, 14:1113-21). Wild-type RhoA and RhoB were subcloned into hemaglutinin (HA)-tagged pcDNA3 (INVITROGEN). The orientation and the sequences of these genes were confirmed by DNA sequencing facilities at the H. Lee Moffitt Cancer Center, Tampa, Fla. RhoB promoter construct pGEI was kindly provided by Dr Y. Monden (Banyu Tsukuba Research, Japan) (Nakamura et al., 1996). pCMV-β-galactosidase vector was purchased from INVITROGEN. The plasmid containing CA-, DN-PI3K, Mek and Akt were kindly provided by Dr. Julie Y. Djeu (H. Lee Moffitt Cancer and Research Institute, Tampa, Fla.) (Jiang, K. et al., Blood, 2003, 101:236-44). β-galactosidase activity and luciferase assay kits were purchased from PROMEGA Corporation, Madison, Wis. The serum response element (SRE) reporter was provided by Dr. Richard Jove, H. Lee Moffitt Cancer and Research Institute, Tampa, Fla. (Turkson, J. et al., Mol Cell Biol, 1999, 19:7519-28). […] Richard Jove, Oncology program, H. Lee Moffitt Cancer and Research Institute, Tampa, Fla. (Turkson, J. et al., Mol Cell Biol, 1999, 19:7519-28). […] (Luetteke, N. C. et al., Genes Dev, 1994, 8:399-413). DNA transfection was performed with the standard lipofectamine protocol (INVITROGEN). […] After transfection the cells were grown for another 36-48 h. Cells were then washed twice with PBS and lyzed in Promega Passive Lysis Buffer. Aliquots of the lysates were then used to measure the luciferase and β-galactosidase activities. The luciferase values were first divided by β-galactosidase values. The RhoB promoter transcriptional activity was determined by dividing the luciferase/β-Gal values from oncogene-transfected cells by those from pcDNA3-transfected cells. […] All the samples were performed in triplicate and the averages of 3 independent experiments were reported here.

The subject of test [2] is RhoB promoter. As to the kind of experiment: RhoB promoter transcriptional activity in H-Ras/3T3 cells. As to conditions: treated 12 hours (FIG. 6B). The source says: The cell lysates were processed as in FIGS. 5A-5D. […] The cell lysates were processed as in FIGS. 5A-5D. […] The cell lysates were processed as in FIGS. 5A-5D. Gene Constructs and RhoB Promoter Transcriptional Activity Assay. Constitutively active H-Ras61L, K-RasV12, N-RasV12, and dominant negative […]-Ras were kind gifts from Dr. Channing Der (University of North Carolina) (Khosravi-Far, R. et al., Mol Cell Biol, 1995, 15:6443-53; Quilliam, L. A. et al., Mol Cell Biol, 1994, 14:1113-21). Wild-type RhoA and RhoB were subcloned into hemaglutinin (HA)-tagged pcDNA3 (INVITROGEN). The orientation and the sequences of these genes were confirmed by DNA sequencing facilities at the H. Lee Moffitt Cancer Center, Tampa, Fla. RhoB promoter construct pGEI was kindly provided by Dr Y. Monden (Banyu Tsukuba Research, Japan) (Nakamura et al., 1996). pCMV-β-galactosidase vector was purchased from INVITROGEN. The plasmid containing CA-, DN-PI3K, Mek and Akt were kindly provided by Dr. Julie Y. Djeu (H. Lee Moffitt Cancer and Research Institute, Tampa, Fla.) (Jiang, K. et al., Blood, 2003, 101:236-44). β-galactosidase activity and luciferase assay kits were purchased from PROMEGA Corporation, Madison, Wis. […] The RhoB promoter transcriptional activity was determined by dividing the luciferase/β-Gal values from oncogene-transfected cells by those from pcDNA3-transfected cells. […]

Another test deals with RhoB protein levels. Put plainly: RhoB protein level by Western blotting in NIH3T3 cells. The note with it: NIH3T3, 5-FU for 36 hrs (FIG. 2C). (In general: In western blotting, separated proteins are transferred to a membrane and probed.)

Procedure for RhoB protein levels: NIH3T3 cells were transiently transfected with various oncogenes or pcDNA3 vector control and cultured for 36 hrs; the pcDNA3-transfected cells were treated by either DMSO or 5-FU for 36 hrs. The cells were then lysed and analyzed for transfection efficiency by Western blotting with anti-HA or anti-Src antibody and for RhoB protein level with anti-RhoB antibody. […] NIH3T3 cells were transiently transfected with various Ras oncogenes or pcDNA3 vector control for 12 hrs, then treated by either DMSO, or 5-FU for another 36 hrs. The whole cell lysates were analyzed for RhoB protein level by Western blotting with anti-RhoB antibody.
Western Blot Analysis. Whole cell lysates were prepared in a lysis buffer containing 20 mM Tris-HCl (pH 7.5), 150 mM NaCl, 1% NP-40, 1 mM phenylmethylsulfonyl fluoride, 1.5 μg each of aprotinin and leupeptin per ml, 10 mM NaF, 10 mM NaPPi, 3 mM sodium vanadate, and 15 mM lycerolphosphate. Lysates were incubated 30 min on ice and centrifuged at 13,000×g for 10 min at 4° C. prior to SDS-PAGE and Western blotting. 50 μg of lysates was loaded for each sample.

As to “RhoA: closely related family member sharing 86% sequence identity with RhoB; wild-type, in HA-tagged pcDNA3, transfected as control”, in the test on H-Ras/3T3 cells, the “invasion through MATRIGEL” value is “invaded”.

Regarding `O=c1[nH]cc(F)c(=O)[nH]1` [5-FU, 5-fluorouracil], the “induction of RhoB promoter activity” value was 2 fold in the test with RhoB promoter [1] (NIH3T3, 5-FU 2.0 μM 12 hours (FIG. 6A)); “more than 4 fold” with RhoB promoter [1] (NIH3T3, 5-FU 2 μM for 12 hours, absence of oncogenes (FIG. 2A)); “only one fold or less than one fold” with RhoB promoter [1] (NIH3T3, 5-FU 2 μM for 12 hours, in the presence of H-Ras, N-Ras, and K-Ras (FIG. 2A)); “little effect” with RhoB promoter [2]. The “induction of RhoB protein levels” value with RhoB protein levels came out at 3 fold.
